In the supplement of paper PMC4862054:
“And” between values parts separate entries of the source, which are not always exact repeats. Identical values can stand only once. Values belong to the molecule of their own block, whether it stands above or below them.

How the values were obtained:
DU-4475 [1] = test: normalised viability (% of control), CellTiter-Blue; higher = more viable cells (about 100 = DMSO control); details: incubation time: 72 h
Experimental: (§1)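 DSRT, CellTiter-Blue viability, 72 h incubation. Signal is normalised to DMSO and benzethonium chloride controls. Value is the normalised response at dose 8.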

CAL-51 [2] = test: as above; details: incubation time: 72 h
Experimental: as §1

CAL-148 [3] = test: as above; details: incubation time: 72 h
Experimental: as §1

HDQ-P1 [4] = test: as above; details: incubation time: 72 h
Experimental: as §1

CAL-85-1 [5] = test: as above; details: incubation time: 72 h
Experimental: as §1

MDA-MB-453 [6] = test: as above; details: incubation time: 72 h
Experimental: as §1

DU-4475 [7] = test: as above; details: incubation time: 72 h; remark: listed apart in the source
Experimental: (§2)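 DSRT, CellTiter-Blue viability, 72 h incubation. Signal is normalised to DMSO and benzethonium chloride controls. Value is the normalised response at dose 7.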

CAL-51 [8] = test: as above; details: incubation time: 72 h; remark: listed apart in the source
Experimental: as §2

CAL-148 [9] = test: as above; details: incubation time: 72 h; remark: listed apart in the source
Experimental: as §2

HDQ-P1 [10] = test: as above; details: incubation time: 72 h; remark: listed apart in the source
Experimental: as §2

CAL-85-1 [11] = test: as above; details: incubation time: 72 h; remark: listed apart in the source
Experimental: as §2

MDA-MB-453 [12] = test: as above; details: incubation time: 72 h; remark: listed apart in the source
Experimental: as §2

HCC1937 [13] = details: 72 h
Outline: (§3)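 A 20 µl suspension of breast cancer cells was placed in 384-well plates that already contained compound at 5 concentrations in 10-fold steps across a compound-specific 10,000-fold range, and the plates were left for 72 h. CellTox Green fluorescence at 485/520 nm gave cell death, and CellTiter-Glo luminescence, read after 10 min at room temperature, gave viability. Each plate was normalised to 0.1 % DMSO and a positive kill control. EC50 was fitted from the curves and censored at the top concentration.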

CAL-51 [14] = details: 72 h
Outline: as §3

BT-474 = details: 72 h
Outline: as §3

MDA-MB-436 = details: 72 h
Outline: as §3

BT-549 [15] = details: 72 h
Outline: as §3

Hs578T [16] = details: 72 h
Outline: as §3

CAL-85-1 [17] = details: 72 h
Outline: as §3

MDA-MB-468 [18] = details: 72 h
Outline: as §3

CAL-120 [19] = details: 72 h
Outline: as §3

MDA-MB-453 [20] = details: 72 h
Outline: as §3

SK-BR-3 [21] = details: 72 h
Outline: as §3

DU-4475 [22] = test: normalised viability (% of control), CellTiter-Blue; higher = more viable cells (100 = DMSO, 0 = benzethonium chloride kill control); details: incubation time: 72 h
Experimental: (§4)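 DSRT, CellTiter-Blue viability, 72 h incubation. Signal is normalised to DMSO and benzethonium chloride controls. Value is the normalised response at dose 1.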

HCC1937 [23] = test: as above; details: incubation time: 72 h
Experimental: as §4

CAL-51 [24] = test: as above; details: incubation time: 72 h
Experimental: as §4

MFM-223 = test: as above; details: incubation time: 72 h
Experimental: as §4

BT-549 [25] = test: as above; details: incubation time: 72 h
Experimental: as §4

HDQ-P1 [26] = test: as above; details: incubation time: 72 h
Experimental: as §4

Hs578T [27] = test: as above; details: incubation time: 72 h
Experimental: as §4

MDA-MB-468 [28] = test: as above; details: incubation time: 72 h
Experimental: as §4

CAL-120 [29] = test: as above; details: incubation time: 72 h
Experimental: as §4

SK-BR-3 [30] = test: as above; details: incubation time: 72 h
Experimental: as §4

HCC1599 = test: as above; details: incubation time: 72 h
Experimental: as §4

MCF-10A = details: 72 h
Outline: as §3

MDA-MB-231 = details: 72 h
Outline: as §3

- EC50, CellTiter-Glo (HCC1937 [13]): 0.24 nM
- EC50, CellTiter-Glo (BT-474): 4.76 nM
- EC50, CellTiter-Glo (MDA-MB-436): 0.76 nM
- EC50, CellTiter-Glo (BT-549 [15]): 0.13 nM
- EC50, CellTiter-Glo (MDA-MB-468 [18]): 0.13 nM
- EC50, CellTiter-Glo (MDA-MB-453 [20]): 1.65 nM
- EC50, CellTiter-Glo (SK-BR-3 [21]): 0.49 nM
SMILES: CO[C@H]1C[C@@H]2CC[C@@H](C)[C@@](O)(O2)C(=O)C(=O)N2CCCC[C@H]2C(=O)O[C@H]([C@H](C)C[C@@H]2CC[C@@H](OCCO)[C@H](OC)C2)CC(=O)[C@H](C)/C=C(\C)[C@@H](O)[C@@H](OC)C(=O)[C@H](C)C[C@H](C)/C=C/C=C/C=C/1C [Everolimus]
- normalised viability (DU-4475 [1]; 300 nM): 60.9% and 62.6%
- normalised viability (CAL-51 [2]; 300 nM): 40.4% and 43.4%
- normalised viability (CAL-148 [3]; 300 nM): 39% and 37.2%
- normalised viability (HDQ-P1 [4]; 300 nM): 72.9% and 72.6%
- normalised viability (CAL-85-1 [5]; 300 nM): 57% and 52.9%
- normalised viability (MDA-MB-453 [6]; 300 nM): 28.7% and 29.6%
- normalised viability (DU-4475 [7]; 100 nM): 49.9% and 56%
- normalised viability (CAL-51 [8]; 100 nM): 36.9% and 38%
- normalised viability (CAL-148 [9]; 100 nM): 42% and 40.4%
- normalised viability (HDQ-P1 [10]; 100 nM): 72.6% and 57.6%
- normalised viability (CAL-85-1 [11]; 100 nM): 61.3% and 49.3%
- normalised viability (MDA-MB-453 [12]; 100 nM): 29.1% and 22.3%
- EC50, CellTiter-Glo (CAL-51 [14]): 0.67 nM
- EC50, CellTiter-Glo (Hs578T [16]): 0.18 nM
- EC50, CellTiter-Glo (CAL-85-1 [17]): 0.22 nM
- EC50, CellTiter-Glo (CAL-120 [19]): 0.67 nM
- normalised viability (DU-4475 [22]; 0.1 nM): 106% and 105%
- normalised viability (HCC1937 [23]; 0.1 nM): 58% and 70.5%
- normalised viability (CAL-51 [24]; 0.1 nM): 99.3% and 104%
- normalised viability (MFM-223; 0.1 nM): 85% and 84%
- normalised viability (BT-549 [25]; 0.1 nM): 81% and 93%
- normalised viability (HDQ-P1 [26]; 0.1 nM): 87.3% and 89.8%
- normalised viability (Hs578T [27]; 0.1 nM): 58.9% and 73.8%
- normalised viability (MDA-MB-468 [28]; 0.1 nM): 105% and 87.7%
- normalised viability (CAL-120 [29]; 0.1 nM): 97.4% and 80.8%
- normalised viability (SK-BR-3 [30]; 0.1 nM): 95.7% and 89.7%
- normalised viability (HCC1599; 0.1 nM): 101%

- EC50, CellTiter-Glo (HCC1937 [13]): 3900 nM
- EC50, CellTiter-Glo (BT-474): 2870 nM
- EC50, CellTiter-Glo (MDA-MB-436): 4810 nM
- EC50, CellTiter-Glo (BT-549 [15]): 4440 nM
- EC50, CellTiter-Glo (MDA-MB-468 [18]): 3050 nM
- EC50, CellTiter-Glo (MDA-MB-453 [20]): 3370 nM
- EC50, CellTiter-Glo (SK-BR-3 [21]): 3330 nM
- EC50, CellTiter-Glo (MDA-MB-231): 2800 nM
SMILES: CCCCCCCCc1ccc(CCC(N)(CO)CO)cc1 [Fingolimod]
- normalised viability (DU-4475 [1]; 3000 nM): 117%
- normalised viability (CAL-51 [2]; 3000 nM): 109%
- normalised viability (CAL-148 [3]; 3000 nM): 88.8%
- normalised viability (HDQ-P1 [4]; 3000 nM): 95%
- normalised viability (CAL-85-1 [5]; 3000 nM): 91.7%
- normalised viability (MDA-MB-453 [6]; 3000 nM): 95.2%
- normalised viability (DU-4475 [7]; 1000 nM): 109%
- normalised viability (CAL-51 [8]; 1000 nM): 112%
- normalised viability (CAL-148 [9]; 1000 nM): 96.3%
- normalised viability (HDQ-P1 [10]; 1000 nM): 110%
- normalised viability (CAL-85-1 [11]; 1000 nM): 93.4%
- normalised viability (MDA-MB-453 [12]; 1000 nM): 103%
- EC50, CellTiter-Glo (CAL-51 [14]): 2040 nM
- EC50, CellTiter-Glo (MCF-10A): 3350 nM
- EC50, CellTiter-Glo (CAL-85-1 [17]): 3340 nM
- normalised viability (DU-4475 [22]; 1 nM): 122%
- normalised viability (HCC1937 [23]; 1 nM): 96.5%
- normalised viability (CAL-51 [24]; 1 nM): 117%
- normalised viability (MFM-223; 1 nM): 94%
- normalised viability (BT-549 [25]; 1 nM): 106%
- normalised viability (HDQ-P1 [26]; 1 nM): 130%
- normalised viability (Hs578T [27]; 1 nM): 97.6%
- normalised viability (MDA-MB-468 [28]; 1 nM): 106%
- normalised viability (CAL-120 [29]; 1 nM): 82.3%
- normalised viability (SK-BR-3 [30]; 1 nM): 102%
- normalised viability (HCC1599; 1 nM): 105%

SMILES: Cc1cc2c(C(C)C)c(O)c(O)c(C=O)c2c(O)c1-c1c(C)cc2c(C(C)C)c(O)c(O)c(C=O)c2c1O [Gossypol]
- normalised viability (DU-4475 [1]; 30000 nM): 4.25%
- normalised viability (CAL-51 [2]; 30000 nM): 3.25%
- normalised viability (CAL-148 [3]; 30000 nM): 7.03%
- normalised viability (HDQ-P1 [4]; 30000 nM): 4.62%
- normalised viability (CAL-85-1 [5]; 30000 nM): 5.42%
- normalised viability (MDA-MB-453 [6]; 30000 nM): 5.68%
- normalised viability (DU-4475 [7]; 10000 nM): 2.82%
- normalised viability (CAL-51 [8]; 10000 nM): 60.5%
- normalised viability (CAL-148 [9]; 10000 nM): 70.7%
- normalised viability (HDQ-P1 [10]; 10000 nM): 52.5%
- normalised viability (CAL-85-1 [11]; 10000 nM): 45.8%
- normalised viability (MDA-MB-453 [12]; 10000 nM): 18.4%
